“And” between values parts separate entries of the source, which are not always exact repeats. Identical values can stand only once.
What was measured:
[1] = Behaviour, homogeneity and stability of dosing formulations; format: physicochemical; conditions: oral: 1% MC (AgMP, AgNP) or purified water (AgAc, AgNO3); i.v.: 5% glucose or purified water
Protocol: Further details are provided under Supplementary information.
Polypropylene vessels and containers were used throughout preparation and storage to limit artefactual loss of Ag from adsorption onto surfaces (Sekine et al. [2015]). Vessels were pre-cleaned with a dilute nitric acid solution and then rinsed thoroughly with ultrapure water to remove contaminants. Chloride- or phosphate-containing vehicles and reagents were avoided to prevent Ag precipitation. Dosing formulations were prepared once for the single-dose administrations, and weekly for the repeated dose phase (divided into daily aliquots). […]
An extensive analytical pre-testing program was performed to fully characterize the test items and develop protocols to optimise the homogeneity and stability of dosing formulations. […] The Ag^+ fraction in the silver powder (AgMP) dosing formulations was determined to be a maximum of 0.004%. […]
To assure their accurate concentration, uniform homogeneity and physical stability, dosing formulation concentrations were analytically verified after preparation but before first administration using inductively coupled plasma mass spectrometry (ICP-MS) for determination of total Ag content. […] Samples of each formulation prepared for i.v. and single oral administration, as well as for Weeks 1 and 4 of the repeated dosing segment were analysed. […]

[2] = Clinical observations, bodyweight, organ weights and macroscopic examination; format: in vivo, Sprague–Dawley rats; conditions: repeated dose study, 175 mg AgAc/kg bw/d
Protocol: Animals were inspected visually at least twice daily for evidence of clinical signs or change in health status. As applicable, injection sites were regularly assessed post-dosing for any local reaction. Bodyweight was measured for all single-dose treatments before administration (typically the day before treatment), on the day of administration and on the day of termination. For the 28-day repeated administration phase, the bodyweight of each animal was recorded pre-treatment, on Day 1 of treatment and then at weekly intervals (including on the day of termination).
Following final blood sampling, animals were euthanised using carbon dioxide asphyxiation, with subsequent exsanguination, prior to macroscopic examination for the investigation of any abnormalities. Tissues for analysis of total Ag content were obtained from animals administered the test items for 28 days. The tissue set comprised: brain (whole), bone marrow (from both femurs), small intestine (duodenum/ileum/jejenum), liver, spleen, ovaries, testes (excluding epididymides) and uterus. The luminal contents of GI tract samples were thoroughly flushed out with cold purified water. After weighing, tissues were retained frozen (− 20 °C).

serum copper (Cu) levels = test: Serum Cu levels after 28 days repeated oral dosing (ICP-MS); conditions: for Serum Cu conc. % of Control group mean: mean (SD)
Protocol: Samples of whole blood (0.2 mL) were obtained from the jugular vein of animals, with lithium heparin integrated as an anticoagulant. […] Each sample was gently mixed and frozen on dry ice, pending transfer to storage at − 20 °C. […] Serum was obtained by centrifugation (10 min, 2000 RCF) and stored frozen until analysis.
Previous robust TK studies involving the analysis of Ag in biological matrices have utilised aggressive digestion techniques, typically based on digestion/mineralisation in concentrated HNO3 with microwave-accelerated reaction systems. To avoid subsequent precipitation of Ag into insoluble complexes and subsequent loss for analysis, sample stabilisation with an excess of chloride (e.g. HCl) is appropriate. These principles were adopted for sample processing in this investigation. In brief, each blood subsample (50 µL) was combined with 800 µL concentrated HNO3 (65–70%) in a glass pyrex tube. The contents were then digested in an Ultrawave (Milestone, Italy) digester using digestion programme ‘blood’. Afterwards, 800 μL HCl (37%) was added, and 400 μL of the HNO3/HCl digest was combined with 2.60 mL of rhodium internal standard followed by rotary mixing for at least 30 min. The processed sample was then analysed on an Agilent 7900 × inductively coupled plasma mass spectrometer (ICP-MS). […] The digestion was 20 min at elevated temperature and pressure (200 °C, 100 bar, 1500 W). Then, 3 parts of concentrated HCl (35–40%) were added, and the digest was stored at − 20 °C until analysis. A 50 µL subsample was subsequently mixed with 3.95 mL of rhodium internal standard and analysed by ICP-MS. Analysis occurred within the 48-day assured stability period.
All bioanalytical methods underwent validation before deployment. ICP-MS runs included quality control samples and a multilevel calibration. Lower limits of quantitation (LLOQ) for the analytical methods were, respectively, 10 ng/mL for total Ag in blood, 5 ng/mL for total Ag in tissue and 30 ng Cu/mL for Cu in serum.

Row | SMILES | Behaviour in dosing vehicles [1] | bodyweight [2] | Serum Cu conc. % of Control group mean (serum copper (Cu) levels; 28 d oral 5 [3.2 Ag] mg/kg bw/d, female) | Serum Cu conc. % of Control group mean (serum copper (Cu) levels; 28 d oral 5 [3.2 Ag] mg/kg bw/d, male) | Serum Cu conc. % of Control group mean (serum copper (Cu) levels; 28 d oral 55 [35 Ag] mg/kg bw/d, female) | Serum Cu conc. % of Control group mean (serum copper (Cu) levels; 28 d oral 55 [35 Ag] mg/kg bw/d, male) | Serum Cu conc. % of Control group mean (serum copper (Cu) levels; 28 d oral 125 [80 Ag] mg/kg bw/d, female) | Serum Cu conc. % of Control group mean (serum copper (Cu) levels; 28 d oral 125 [80 Ag] mg/kg bw/d, male) | Effect on circulating Cu levels (serum copper (Cu) levels; 28 d oral, AgMP up to limit dose 1000 mg/kg bw/d, AgNO3 detectable at 55, statistically significant at 125 mg/kg bw/d)
1 | CC(=O)[O-].[Ag+] [AgAc, Silver(I) acetate] | Soluble up to the highest concentration of test item employed. See also Table 2 | slight depression in weight gain during Week 1 |  |  |  |  |  |  | 
2 | O=[N+]([O-])[O-].[Ag+] [AgNO3, silver(I) nitrate] | Soluble up to the highest concentration of test item employed. See also Table 2 |  | 101 (10) % of Control group mean | 111 (25) % of Control group mean | 81 (11) % of Control group mean | 79 (13) % of Control group mean | 74 % of Control group mean and 74 (15) % of Control group mean | 62 % of Control group mean and 62 (12) % of Control group mean | reduction in circulating Cu levels was observed

Source: publication PMC10256634, “Comparative in vivo toxicokinetics of silver powder, nanosilver and soluble silver compounds after oral administration to rats” (Archives of Toxicology, 2023)
